Results: a melting point compilation (Tetko et al.; mined from patent text by program, amines drawn as free bases though some values may be those of a salt)

| Structure (SMILES) | melting point [°C] |
| --- | --- |
| CCOC(=O)C1COc2ccc(Cl)c(Cl)c2O1 (configuration not stated) | 92 to 94 |
| O=S(=O)(c1ccc(Cl)cc1)C(CCc1ccccc1)c1cc(F)ccc1F (configuration not stated) | 111 to 113 |
| CCCCCCCCCCCCCCCCCC1OCC(COC(O)CCCCC=O)O1 (configuration not stated) | 53.6 to 55.7 |
| Cc1cc(C(=O)N2Cc3ccc(C(=O)O)n3Cc3ccccc32)ccc1-c1ccccc1C(F)(F)F | 127 to 130 |
| COc1ccc2c(ccn3c(=O)c(C(=O)O)cnc23)c1 | 302 to 304 |
| COC(=O)c1cccc(CSc2c(O)cc(-c3ccccc3)oc2=O)c1 | 170 to 171 |
| CC(NC(=O)N(Cc1csc(C(C)C)n1)C1CC1)C(=O)NC(Cc1ccccc1)CC(O)C(Cc1ccccc1)NC(=O)OCc1cncs1 (configuration not stated) | 65 to 67 |
| CC(C)(CO)NC(=O)Cc1ccc2c(c1)C(=O)c1sccc1CO2 | 162 to 163 |
| CCCc1c(OCCCOc2ccc(C(=O)CCC(=O)O)cc2C)ccc(C(C)=O)c1O | 179 to 180 |
| C#CCN(Cc1ccc2nc(C)[nH]c(=O)c2c1)c1ccc(C(=O)NC(C)(C#N)Cc2ccccc2)cc1 (configuration not stated) | 208 to 209 |
| N#Cc1ccc(NC(=O)c2cccc(OCc3ccc(Cl)cn3)c2)cc1 | 168 to 169 |
| O=C(O)c1cccc([N+](=O)[O-])c1O | 123 |
| CCCCc1nc2c(N)nc3cc(-c4ccc(C(C)(C)C)cc4)ccc3c2n1CC(C)C | 219 to 220 |
| COC(=O)c1nc(-c2ccccc2)ccc1O | 100 to 101 |
| CCOC(=O)/C(=C\Nc1cc(OC)cc(OC)c1)c1ccccc1 | 75 to 76 |
| COc1cc(N2CCC(N3CCNCC3)CC2)ccc1Nc1ncc2ccc(-c3ccccc3OC)n2n1 | 65 to 67 |
| CC(NC(=O)c1cc2ccccc2[nH]1)C(=O)O (racemic) | 240 |
| CS(=O)c1cccc(CNC(=O)c2nc3scc(COCc4ccc(C(=O)O)cc4)c3c(=O)[nH]2)c1 (configuration not stated) | 227 to 228 |
| CN1CCSC1=NC(=Nc1ccccc1)N1CCCC1 | 160 to 162 |
| COC1C(O)CCC(O)(CSC)C1C1(C)OC1CC=C(C)C (configuration not stated) | 52 to 53 |
| CONC(=O)Nc1ccc(-c2sc3c(c2CCl)c(=O)n(-c2ccc4c(c2)OCCO4)c(=O)n3Cc2c(F)cccc2F)cc1 | 204 to 209 |
| CCc1cc2[nH]c(=O)cc(O)c2c(CC)n1 | 322 to 325 |
| Cn1cc([N+](=O)[O-])nc1CBr | 130 to 132 |
| COC(=O)COc1ccc(NC(=O)COCc2ccccc2)cc1 | 76 to 77.5 |
| CCCCc1nc2c(N)nc3ccccc3c2n1CCN | 196 to 199 |

| Structure (SMILES) | melting point [°C] |
| --- | --- |
| O=C1NC(=O)C(Sc2ccccn2)=C1Sc1ccccn1 | 70 to 72 |
| CC1(C)Cc2c(c(N3CCOCC3)nc3sc4c(N(CCN5CCOCC5)Cc5cccnc5)ncnc4c23)CO1 | 150 |
| O=C1N(Cc2ccccn2)c2ccc3ncsc3c2C12COc1cc3c(cc12)OCCO3 (configuration not stated) | 156 to 158 |
| N#Cc1ccc(C(=O)N2CCc3cc(S(=O)(=O)N4CC(c5ccccc5)NC4=O)ccc32)cc1 (configuration not stated) | 241 to 243 |
| CN1CC(c2ccccc2)c2ccccc2C(c2ccccc2)C1(C)C (configuration not stated) | 137 to 138 |
| CCCCOCCOc1ccc(-c2ccc(N3CCCCCC3)c(C=C(C)C(=O)O)c2)cc1 | 124 to 126 |
| CCCCNC(=O)c1ccc(S(=O)(=O)CCCn2c(CCC)nc3c(N)nc(C)c(C)c32)cc1 | 147 to 149 |
| CNC(=O)c1cn2c(C)c(C)nc2c(O)c1CC[C@@H](O)c1ccccc1 | 250 to 252 |
| CCc1[nH]n(C2CCCC2)c2nc(Cc3cccc(OC)c3)nc(=O)c1-2 | 148 to 150 |
| C=CCc1c(-c2ccc(C#N)cc2)[nH]c2cc(C#N)ccc12 | 217 to 221 |
| O=C(c1ccc([N+](=O)[O-])cc1)c1ccc2[nH]c(=O)cc(-c3cccc(Cl)c3)c2c1 | 227 |
| O=C(Oc1ccc(Oc2ccccc2)cc1)N1CCC(OC(=O)N2CCC(OC(=O)N3CCC4(CCCC4)CC3)CC2)CC1 | 48 to 63 |
| C=C1OC(=NN)C(c2ccccc2)C(=O)N1C(C)(C)C(=O)Nc1cc(Cl)cc(Cl)c1 (configuration not stated) | 146 to 149 |
| Cc1noc(CC(=O)Nc2ccccc2Cl)n1 | 118 to 120 |
| COc1ccc(/C(C)=C/C=C/C(=O)O)cc1 | 174 to 177 |
| Cc1c2n(c3ccccc13)C(=O)C(C(O)c1cn(C(c3ccccc3)(c3ccccc3)c3ccccc3)c(C)n1)CC2 (configuration not stated) | 135 to 136 |
| CCN(CC)CCN(CCCCCSc1nc(-c2ccccc2)c(-c2ccccc2)[nH]1)C(=O)NC(C)C | 58 to 59 |
| Cc1cccc(N2CCN(CCc3nc4cc(Br)c5ccccc5c4n3C)CC2)c1 | 155 to 157 |
| O=C(N1CC2CC2(c2ccc(Cl)cc2)C1)C12CC3CC(CC(C3)C1)C2 (configuration not stated) | 72 to 75 |
| CCCCCCCCOC(=O)CS(=O)(=O)Nc1c(C(C)C)cccc1C(C)C | 56 to 58 |
| COc1cc2c(cc1OC)CN(c1nc(Cl)nc(N3CCc4cc(OC)c(OC)cc4C3)n1)CC2 | 149 to 151 |
| O=C(O)CC(CC(=O)O)c1ccc(O)cc1 | 168 to 170 |
| C=CCSc1nnc(OC)c2c1CCCC2 | 46 to 48 |
| C#CCOc1ccc2c(c1)c(-c1ccc(C(C)C)cc1)nc(=O)n2Cc1cccc(N2CCCC2=O)c1 | 68 to 69 |
| Cc1ncnc(-c2cc([N+](=O)[O-])c(C#N)cc2F)c1Cl | 123 to 125 |

| Structure (SMILES) | melting point [°C] |
| --- | --- |
| COc1ccc(C(C)(C)CC(O)(C(=O)O)C(F)(F)F)cc1Br (configuration not stated) | 94 to 96 |
| O=C(O)[C@H](Cc1c[nH]c2ccccc12)NS(=O)(=O)c1ccc2c(c1)Sc1ccccc1O2 | 120 to 130 |
| CCOc1ccc2c(c1)n(C1CCCCC1)c(=O)n2Cc1ccc(C(=O)NC(C)(C)CN(C)C)cc1OC | 161 |
| O=C(CCC12CCC(=O)N1C(=O)CC2)OCc1ccc(Cl)cc1 | 141 to 142 |
| CCOC(=O)c1sc2ccc(O)cc2c1Cl | 160 to 161 |
| OCC=Cc1ccc(-c2cnc(CSCCOc3ccccc3)o2)cc1 | 73 to 74 |
| COC(=O)c1nc(Cl)c(F)c(N)c1/C=C/Cl | 128 to 130 |
| CCCc1nc(C)cn1-c1cc(F)ccc1[N+](=O)[O-] | 36 to 39 |
| FC(F)(F)COC(c1ccc(Cl)c2nc3n(c12)CCCN3c1ccc(Cl)cc1Cl)C1CC1 (configuration not stated) | 143 to 145 |
| Cc1cc(COc2ccc(S(=O)(=O)NC[C@@H](C(=O)NO)N3CCN(Cc4ccc(C(F)(F)F)cc4)CC3)cc2)c2ccccc2n1 | 148 |
| O=C(O)c1cc2c(OC[C@@H](O)CN3CCC(c4ccc5ccccc5c4)CC3)cccc2[nH]1 | 171 to 173 |
| FC(F)(F)c1ccc(-n2ccc3c(Cl)nccc32)c(Cl)c1 | 133 to 135 |
| NC(=O)N(O)CC#CCOc1cccc(Oc2ccccc2)c1 | 105 to 107 |
| CN(C/C=C\COCC(=O)O)c1cnc(-c2ccccc2)c(-c2ccccc2)n1 | 128 to 130 |
| COC1OCC[C@@H]1NC(=O)[C@H](Cc1ccccc1)NC(=O)OCc1ccccc1 (some centres not stated) | 140 to 142 |
| CCOC(=O)/C=C(/c1ccc(OC)cc1)c1cc(Cl)cc(Cl)c1 | 116 to 118 |
| CC(=O)OC1CSC(Oc2ccc(-c3sc(C)nc3C)nc2)C(OC(C)=O)C1OC(C)=O (configuration not stated) | 174 to 177 |
| Cc1nc[nH]c1CSCCN=C(NCCSCc1[nH]cnc1C)NC(N)=O | 60 to 70 |
| CC(C)(C)N(NC(=O)c1cccs1)C(=O)c1ccccc1 | > 190 |
| NOCc1cn(C(c2ccccc2)(c2ccccc2)c2ccccc2)nn1 | 144 to 145 |
| COc1cc2c(cc1OC(C)C)-c1c(-c3cccnc3)c3c(n1CC2)C(=O)N(C(C)(C)C)CCOC3 | 193 to 194 |
| CN1CCN(C)c2nc(c3ccccc3n2)NCC2CCCC(CNc3nc1nc1ccccc31)C2 | 284 to 285 |
| CCOC(=O)c1c(C(F)F)nc(C(F)(F)F)c(C(=O)OCC)c1Cl | 35 to 40 |
| CS(=O)(=O)Nc1ccc(CCCC(=O)OCc2ccccc2)cc1 | 88 to 89 |
| NS(=O)(=O)c1cc2cc(N(Cc3ccccc3)Cc3ccccc3)ccc2s1 | 122 to 124 |

| Structure (SMILES) | melting point [°C] |
| --- | --- |
| O=C(Cn1c(-c2ccc(Br)cc2)nc2cccnc21)Nc1ccccc1 | 242 to 244 |
| O=C1N(Cc2ccc(Cl)s2)c2c(C(F)(F)F)cccc2C12COc1cc3c(cc12)OCO3 (configuration not stated) | 165 to 166 |
| CCCOc1ccc(-c2ccc(=O)[nH]n2)cc1OC | 186 |
| COC(=O)C1=C(C)NC(C)=CC1c1ccccc1OCc1ccc(C)cc1 (configuration not stated) | 107 to 109 |
| CC(C)(C)OC(=O)NCCOc1ccccc1OCCBr | 74 to 75 |
| CN1CCN(c2cccc3c2C[C@H](NC(=O)c2cccc(Oc4ccccc4)c2)CC3)CC1 | 136 to 137 |
| C1=C2CCC=C2CCCCCCCCC1 | 97 to 102 |
| COc1c2c(c(OC)c(OC)c1OC)CC(CCCCOc1ccc(C(=O)N(C)C)cc1)C2 | 99 to 102 |
| Cc1cc(I)ccc1Nc1c(-c2nnco2)ccc(F)c1F | 144 to 146 |
| CC(=O)NC(=O)CSCc1ccccc1 | 86 to 87 |
| COc1ccc(OC)c(OC)c1OC | 84 to 85 |
| Cc1ccc(C)n1-c1c(Cl)cc(C(F)(F)F)cc1Cl | 63 |
| Cc1nnc(-c2ccc3occ(-c4cnn(C)c4)c3c2)o1 | 147 to 148 |
| CCOC(=O)c1cnc2n(c1=O)CC(C)CC2=NNc1ccccc1 (configuration not stated) | 165 to 167 |
| COC(=O)C(C#N)C(=O)c1snc(Cl)c1Cl (configuration not stated) | 119 to 122 |
| CCCCCN(CC(=O)OCC)C(=O)C(CCC(=O)O)CS(=O)(=O)c1ccc2ccccc2c1 (configuration not stated) | 77 to 80 |
| O=C(CCCl)Nc1ccc2[nH]c3ccc(NC(=O)CCCl)cc3c(=O)c2c1 | > 350 |
| CCS(=O)c1cc2c(cc1OC)CCn1c3c(c(Br)c1-2)CCCCN(C(C)(C)C)C3=O (configuration not stated) | 140 to 145 |
| CC(C)(CS(=O)(=O)c1ccc(Oc2ccc(OC(F)(F)F)cc2)cc1)N(O)C=O | 128 to 129 |
| NCCc1ccc(CCNS(=O)(=O)c2ccc(Cl)cc2)cc1 | 90 to 93 |
| CCOC(=O)CCC1OC(n2cc(CC)c(=O)[nH]c2=O)CC1OC(C)=O (configuration not stated) | 137 to 138 |
| CC1(C)CC(C)(C)CC(CCC(=O)O)(NC(=O)CCl)C1 | 130 to 131 |
